Laboratory results published in patent US20150335565A1, “IRRITATION MITIGATING POLYMERS AND USES THEREFOR” (LUBRIZOL ADVANCED MATERIALS, INC., priority 2012, published 2015).
Like-named read-outs stand apart in the source and are kept apart here.

Experiments:
[1] = test system: Epiderm™ Human Tissue Model (EPI-200); assay: MTT tissue viability assay (ET-50 protocol) for skin irritancy
Experimental: (§1) Mitigation of skin irritancy induced by sodium dodecyl sulfate (SDS) surfactant dosed with the polymer of Example 56 is assessed in the Epiderm™ Human Tissue Model (EPI-200) bioassay conducted by MatTek Corporation, Ashland, Mass. The MatTek bioassay utilizes human derived epidermal keratinocytes (NHEK) which have been cultured to form a multilayered, highly differentiated model of the human epidermis.
(§2) The MTT tissue viability assay measures the NAD(P)H dependent microsomal enzyme reduction of MTT (and to a lesser extent, the succinate dehydrogenase reduction of MTT) after exposure to a treated skin culture test sample for various exposure times. The duration of exposure resulting in a 50% decrease in MTT conversion in test formulation treated EpiDerm™ cultures, relative to control cultures, is determined (ET-50).
(§3) A SDS surfactant/polymer test formulation is formulated from the components set forth in Table 10 and evaluated for irritancy potential using the MTT viability assay. Test samples containing neat SDS surfactant (no polymer) are formulated for comparative purposes.
(§4) Skin tissue culture inserts (Cat. No. EPI-200) are pre-incubated in the wells of 6-well plates containing 0.9 ml of MatTek assay medium (Cat. No. EPI-100-ASY) for 1 hr. at 37° C. in a humidified atmosphere of 5% CO2 in air. The 6-well plates containing the tissue culture inserts are removed from the incubator and the assay media is aspirated from the wells and replaced by an additional aliquot of 0.9 ml of pre-warmed (37° C.) assay media. For each exposure time wells are then dosed (2 repetitions) with 100 μl of the test formulations set forth in Table 10 (3 tissue culture wells are dosed with 100 μl ultra-pure water as a negative control for each of the test candidates). In addition, 100 μl of a positive control formulation (1% Triton X-100 in ultrapure water) is dosed into tissue culture wells (3 repetitions for each exposure time), as well as 3 repetitions of ultrapure water as a negative control. The exposure times of the test formulations, negative control and positive control are set forth below.
(§5) MTT assay plates are prepped by preparing a 24-well plate by adding 300 μl of MTT reagent solution to an appropriate number of wells to accommodate the test. The MTT reagent is utilized at a concentration of 1 mg/ml of MTT diluted in Dulbecco's Modified Eagle Medium (DMEM). The MTT/DMEM solution is centrifuged and decanted to remove any precipitate before use.
(§6) After exposure times of 60 (1 hr.), 120 (2 hrs.) and 210 (3.5 hrs.) minutes to the test solutions, the tissue cultures are removed from the incubator and thoroughly rinsed (2 times) with Dulbecco's phosphate buffered saline (DPBS) to remove the test material. The negative control is exposed for 4 hours and the positive control is exposed for time periods of 4, 6, 8, and 10 hours. Any remaining rinse media is decanted from the top of the tissue cultures. Each tissue culture insert is transferred to an appropriately labeled well of the 24-well plate containing the MTT reagent solution and placed back in the incubator. After 30 minutes reaction with the MTT reagent, the tissue cultures are removed from the incubator. Each tissue culture insert is removed from its well and the bottom is gently blotted with a lab tissue. The inserts are immersed into a labeled 24-well extraction plate containing 2 ml of isopropanol extractant solution. […]

[2] = as above; conditions: human
Experimental: as §1, §2, §3, §4, §5, §6

Row | Compound | ET-50 (exposure time which reduces tissue viability to 50%) [1] [h] | viability at 1 hr [2] [%] | viability at 2 hr [2] [%] | viability at 3.5 hr [2] [%] | ET-50 (exposure time which reduces tissue viability to 50%) ([1]; interpolated between exposure times that bracket 50% viability) [h]
1 | Triton X-100 [1% Triton X-100] | 5.93 |  |  |  | 
2 | CCCCCCCCCCCCOS(=O)(=O)[O-].[Na+] [Neat Surfactant, sodium dodecyl sulfate] |  | 72 | 28 | 19.6 | 1.41
